Results as given in US20240197733A1, “A GABA RECEPTOR MODULATOR FOR USE IN THE TREATMENT OF PAIN” (SANIONA A/S, priority 2021, published 2024).

Tests used:
Format in all cases: in vivo, Sprague-Dawley rats
[1] = tested on: electrocutaneous stimulation-induced facial pain rodent model; test: ES-induced facial pain model, cold thermal allodynia (acetone test), acute treatment; conditions: 30 mg/kg po, 2 and 4 hrs post dose, p<0.001 and p<0.0001 vs vehicle
From the text: (§1) The electrocutaneous stimulation-induced facial pain rodent model is a reproducible orofacial pain model in which depilated cheek area of rats are repeatedly subjected to electrical stimulation. Repeated electrical stimulation at low intensities produces craniofacial pain that mimics the behavioral characteristics of TN such as development of mechanical and thermal allodynia at cheeks despite no visible edema, swelling or excessive injury and tissue damage.
(§2) Male wild type, Sprague-Dawley rats (Charles River Laboratories) born in-house at AfaSci Research Laboratory between May 24, 2020 to May 28, 2020. At approximately 3 months of age (approximately 350 g-450 g body weight) the rats were deemed suitable for the electrocutaneous stimulation-induced facial pain model. Prior to the experiment, the rats were maintained in group cages (3 rats per cage) in a controlled environment (temperature: 21.5±4.5° C./relative humidity: 35-55%) under a standard 12 h light/12 h dark lighting cycle (lights on at 06:00).
The required quantity of the compounds are weighed and dissolved in 100% DMSO in a volume amounting to 5% of the total volume while placed on a stirrer. The weight of the compounds refers to the free base weights. […]
(§3) Second baseline measurement was carried out similarly to day 1. […] For each animal, the average of the two baseline nociceptive measurements were calculated within each pain modality (mechanical, heat- and cold pain), and used as baseline (“Baseline” point on figures).
Similarly, to day 1- and 2, all rats were subjected to acclimatization to test equipment and decapicone followed by measurements of ES-induced facial mechanical- heat- and cold allodynia (“0” time point on figures). […] Compound 1, vehicle and Carbamazepine was administered perorally in doses of 1, 3, and 10 mg/kg (Compound 1) or 30 mg/kg (carbamazepine) and drug effects on pain thresholds were evaluated 2- and 4 hours after drug administration by assessment of mechanical- (von Frey) and thermal hypersensitivity (heat- and cold stimulation respectively). […]

[2] = tested on: electrocutaneous stimulation-induced facial pain rodent model; test: ES-induced facial pain model, mechanical allodynia (Von Frey filaments), acute treatment; conditions: 30 mg/kg po, acute, 2 and 4 hours post dosing; p<0.001, p<0.0001 vs vehicle
From the text: as §1, §2
(§4) The required quantity of the compounds are weighed and dissolved in 100% DMSO in a volume amounting to 5% of the total volume while placed on a stirrer. The weight of the compounds refers to the free base weights. Once the solution becomes clear/transparent, the remaining volume of the vehicle is added (30% HPBCD prepared in MQ water) to final concentrations of 0.1, 0.3, and 1 mg/ml for Compound 1 and 3 mg/ml of Carbamazepine. The solutions are kept on a stirrer before- and during administration of the compounds to the animals.
(§5) The experimenter assessing the behavioral responses to drug administration is blinded to the drug treatment to the animals. Each treatment group is coded according the scheme below: • A. Vehicle (5% DMSO+30% HPBCD): 10 ml/kg • B. Compound 1: 1 mg/kg • C. Compound 1: 3 mg/kg • D. Compound 1: 10 mg/kg • F. Carbamazepine: 30 mg/kg
as §3
Similarly, to day 1- and 2, all rats were subjected to acclimatization to test equipment and decapicone followed by measurements of ES-induced facial mechanical- heat- and cold allodynia (“0” time point on figures). […] Compound 1, vehicle and Carbamazepine was administered perorally in doses of 1, 3, and 10 mg/kg (Compound 1) or 30 mg/kg (carbamazepine) and drug effects on pain thresholds were evaluated 2- and 4 hours after drug administration by assessment of mechanical- (von Frey) and thermal hypersensitivity (heat- and cold stimulation respectively).
(§6) Decrease in ES-induced pain threshold was evaluated 22 hours following electrical stimulation of the depilated left cheek area (between the eye and ear ridge, this is a receptive field of trigeminal nerve) of each rat and was manifested as facial withdrawal following application of Von Frey filaments for mechanical allodynia and a heat lamp and acetone test for thermal hyperalgesia and allodynia respectively. Baseline pain behaviors were measured similarly to ES-induced facial pain measurements, except that rats were not subjected to ES stimulation.
Mechanical pain thresholds were assessed by measuring each rat's facial withdrawal threshold (g) in response to von Frey monofilaments (BioSeb). […]

[3] = tested on: electrocutaneous stimulation-induced facial pain rodent model; test: ES-induced facial pain model, hot thermal hyperalgesia (lamp test, selective C fiber testing), acute treatment; conditions: 30 mg/kg po, post 4 hours of dose, p<0.0001
From the text: as §1, §2, §4, §5
Second baseline measurement was carried out similarly to day 1. Immediately following the second baseline recording, each rat received 1 hr of electrocutaneous stimulation at cheek (0.4 mA intensity, 10 ms duration, 1 s inter-pulse interval). For each animal, the average of the two baseline nociceptive measurements were calculated within each pain modality (mechanical, heat- and cold pain), and used as baseline (“Baseline” point on figures).
Similarly, to day 1- and 2, all rats were subjected to acclimatization to test equipment and decapicone followed by measurements of ES-induced facial mechanical- heat- and cold allodynia (“0” time point on figures). Based on the individual rat's mechanical- and thermal hypersensitivity, 40 rats were selected for drug testing. Compound 1, vehicle and Carbamazepine was administered perorally in doses of 1, 3, and 10 mg/kg (Compound 1) or 30 mg/kg (carbamazepine) and drug effects on pain thresholds were evaluated 2- and 4 hours after drug administration by assessment of mechanical- (von Frey) and thermal hypersensitivity (heat- and cold stimulation respectively).
as §6
Immediately following assessment of mechanical pain threshold, thermal (hot- and cold induced) pain was determined. […]

NC(=O)N1c2ccccc2C=Cc2ccccc21 [Carbamazepine, reference compound]
effect on cold pain threshold (acetone test, facial withdrawal latency) vs vehicle [1]: significant enhancement of the cold pain threshold | effect on mechanical allodynia (mechanical pain threshold, Von Frey) vs vehicle [2]: significant analgesic effects | effect on heat thermal hyperalgesia (facial withdrawal latency) vs vehicle [3]: full reversal of heat hyperalgesia
